Reference: patent publication US8592469B2, “Diazonamide analogs” (Joyant Pharmaceuticals, Inc., priority 2012, dated 2013)

Legend:
A2058 cells = experiment: Cell viability assay (Cell-Titer-Glo) in A2058 cells; type: cell-based; settings: Homo sapiens, 48 hour treatment, test compounds 1 nM to 1 μM
Method: (§1) Cell viability assays were run using standard protocols known to those of skill in art. Cells were plated in 96 well plates at the density of 3,000-10,000 cells per well. Twenty four hours later, cells were treated with increasing concentration of test compounds (1 nM to 1 μM). After another 48 hour, cell survival was measured using Cell-Titer-Glo® reagent (Promega) following the protocol provided by the manufacture. The IC50 value was determined as the concentration of test compound that kills 50% of the cell population.
(§2) Cell viability data generated according to the protocol described above was generated for representative compounds in A2058 and U937 cells. The compounds shown in Table 1 were prepared by the methods described herein for structurally similar compounds. The reference compound was a synthetic diazonamide analog having the structure: […]

U937 cells = experiment: Cell viability assay (Cell-Titer-Glo) in U937 cells; type: cell-based; settings: Homo sapiens, U-937, 48 hour treatment, test compounds 1 nM to 1 μM
Method: as §1, §2

SMILES	IC50 (A2058 cells) [nM]	IC50 (U937 cells) [nM]
CC(C)[C@H](O)C(=O)N[C@H]1Cc2ccc3c(c2)[C@]2(C4=C(c5nc(CO)co5)N=C(O4)[C@H](C(C)C)NC1=O)c1cc(F)ccc1N[C@@H]2O3 [Compound 81]	55.1	32.8
COC(=O)c1coc(-c2nc3oc2C24c5ccc(F)cc5N[C@H]2Oc2ccc(cc24)C[C@H](NC(=O)[C@@H](O)C(C)C)C(=O)N[C@H]3C(C)C)n1 (stereo partly drawn) [Compound 82]	40.9	3.4
CC(C)[C@H](O)C(=O)N[C@H]1Cc2ccc3c(c2)C2(C4=C(c5nc(CO)co5)N=C(O4)[C@H](C(C)C)NC1=O)c1ccc(F)cc1N[C@H]2O3 (stereo partly drawn) [Compound 83]	184	60.6
COC(=O)c1coc(-c2nc3oc2C24c5cc(Cl)ccc5N[C@H]2Oc2ccc(cc24)C[C@H](NC(=O)[C@@H](O)C(C)C)C(=O)N[C@H]3C(C)(C)C)n1 (stereo partly drawn) [Compound 84]	19.5	10.1
CC(C)[C@H](O)C(=O)N[C@H]1Cc2ccc3c(c2)[C@]2(C4=C(c5nc(CO)co5)N=C(O4)[C@H](C(C)(C)C)NC1=O)c1cc(F)ccc1N[C@@H]2O3 [Compound 85]	0.47	0.74
CC(C)[C@H](O)C(=O)N[C@H]1Cc2ccc3c(c2)[C@]2(C4=C(c5nc(C#N)co5)N=C(O4)[C@H](C(C)C)NC1=O)c1cc(F)ccc1N[C@@H]2O3 [Compound 86]	0.56	21.8
CC(C)[C@H](O)C(=O)N[C@H]1Cc2ccc3c(c2)[C@]2(C4=C(c5nc(C#N)co5)N=C(O4)[C@H](C(C)(C)C)NC1=O)c1cc(F)ccc1N[C@@H]2O3 [Compound 87]	< 0.3	1.9
COC(=O)c1coc(-c2nc3oc2[C@@]24c5ccccc5NC2Oc2ccc(cc24)C[C@H](N(C)C(=O)[C@@H](O)C(C)C)C(=O)N[C@H]3C(C)C)n1 (stereo partly drawn) [Compound 88]	0.8	0.6
CC(C)[C@H](O)C(=O)N(C)[C@H]1Cc2ccc3c(c2)[C@]2(C4=C(c5nc(CO)co5)N=C(O4)[C@H](C(C)C)NC1=O)c1ccccc1NC2O3 (stereo partly drawn) [Compound 89]	3	1
COC(=O)c1coc(-c2nc3oc2[C@@]24c5ccccc5NC2Oc2ccc(cc24)C[C@H](N(C)C(=O)[C@@H](O)C(C)C)C(=O)N[C@H]3C(C)(C)C)n1 (stereo partly drawn) [Compound 90]	10.4	17.1
CC(C)[C@H](O)C(=O)N(C)[C@H]1Cc2ccc3c(c2)[C@]2(C4=C(c5nc(C#N)co5)N=C(O4)[C@H](C(C)C)NC1=O)c1ccccc1NC2O3 (stereo partly drawn) [Compound 91]	0.59	1.97
COC(=O)c1coc(-c2nc3oc2[C@@]24c5ccccc5NC2Oc2ccc(cc24)C[C@H](NC(=O)[C@@H](O)C(C)C)C(=O)N(C)[C@H]3C(C)C)n1 (stereo partly drawn) [Compound 92]	113	69.9
COC(=O)c1coc(-c2nc3oc2[C@@]24c5ccccc5NC2Oc2ccc(cc24)C[C@H](N(C)C(=O)[C@@H](O)C(C)C)C(=O)N(C)[C@H]3C(C)C)n1 (stereo partly drawn) [Compound 93]	35.8	18.6
COC(=O)c1coc(-c2nc3oc2[C@]24c5ccccc5NC2Oc2ccc(cc24)C[C@H](NC(=O)[C@@H](O)C(C)C)C(=O)N(C)[C@H]3C(C)C)n1 (stereo partly drawn) [Compound 94]	> 300	> 300
CC(C)[C@H](O)C(=O)N[C@H]1Cc2ccc3c(c2)C2(C4=C(c5nc6cnccc6o5)N=C(O4)[C@H](C(C)C)NC1=O)c1ccccc1N[C@H]2O3 (stereo partly drawn) [Compound 95]	142	65
CC(C)[C@H](O)C(=O)N[C@H]1Cc2ccc3c(c2)[C@]2(C4=C(c5ccccc5)N=C(O4)[C@H](C(C)C)NC1=O)c1ccccc1NC2O3 (stereo partly drawn) [Compound 96]	> 1000	> 1000
COC(=O)c1csc(-c2nc3oc2C24c5ccccc5N[C@H]2Oc2ccc(cc24)C[C@H](NC(=O)[C@@H](O)C(C)C)C(=O)N[C@H]3C(C)C)n1 (stereo partly drawn) [Compound 97]	225	59.5
CC(C)[C@H](O)C(=O)N[C@H]1Cc2ccc3c(c2)C2(C4=C(c5nc(CO)cs5)N=C(O4)[C@H](C(C)C)NC1=O)c1ccccc1N[C@H]2O3 (stereo partly drawn) [Compound 98]	284	231
COC(=O)c1coc(-c2nc3oc2C24c5ccccc5N[C@H]2Oc2ccc(cc24)C[C@H](NC(=O)[C@@H](O)C(C)C)C(=O)N[C@@H]3C(C)C)n1 (stereo partly drawn) [Compound 99]	> 1000	> 1000
CC(C)[C@H](O)C(=O)N[C@H]1Cc2ccc3c(c2)[C@]2(C4=C(c5nc(CC(F)(F)F)co5)N=C(O4)[C@H](C(C)C)NC1=O)c1ccccc1NC2O3 (stereo partly drawn) [Compound 100]	465	220
CC(C)c1coc(-c2nc3oc2C24c5ccccc5N[C@H]2Oc2ccc(cc24)C[C@H](NC(=O)[C@@H](O)C(C)C)C(=O)N[C@H]3C(C)C)n1 (stereo partly drawn) [Compound 101]	684	500
COC(=O)c1coc(-c2nc3oc2[C@]24c5ccccc5NC2Oc2ccc(cc24)C[C@H](NC(=O)[C@@H](O)C(C)C)C(=O)N[C@H]3C(C)(C)C)n1 (stereo partly drawn) [Compound 103]	221	69
COC(=O)c1coc(-c2nc3oc2CC/C=C/C[C@H](NC(=O)[C@@H](O)C(C)C)C(=O)N[C@H]3C(C)C)n1 [Compound 104]	> 300	> 300
COC(=O)c1coc(-c2nc3oc2CCCCC[C@H](NC(=O)[C@@H](O)C(C)C)C(=O)N[C@H]3C(C)C)n1 [Compound 105]	> 300	> 300
